The test relates to L1210 leukemia ip in BDF1 mice, survival T/C. The experiment in a line: NCI In Vivo Anticancer Drug Screen. Data for tumor model L1210 Leukemia (intraperitoneal) in B6D2F1 (BDF1) mice. Particulars: endpoint: mean survival time, higher = longer survival. In a few lines: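 Tumor was transplanted into mice, which were then dosed with test compound or vehicle alone. Survival was recorded for each group, and the treated figure was expressed relative to the control figure.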

Where [1] appears, read: dose: 50.0 mg/kg/injection, schedule: Q01DX009 (ip), vehicle: saline with Tween-80.
Setting [2] is: dose: 100.0 mg/kg/injection, schedule: Q01DX009 (ip), vehicle: saline with Tween-80.
Where [3] appears, read: dose: 200.0 mg/kg/injection, schedule: Q01DX009 (ip), vehicle: saline with Tween-80.
Setting [4] is: dose: 100.0 mg/kg/injection, schedule: Q01DX001 (ip), vehicle: other.
Where [5] appears, read: dose: 200.0 mg/kg/injection, schedule: Q01DX001 (ip), vehicle: other.
[6] abbreviates: dose: 75.0 mg/kg/injection, schedule: Q01DX001 (ip), vehicle: other.
The mark [7] stands for this setting: dose: 150.0 mg/kg/injection, schedule: Q01DX001 (ip), vehicle: other.
Where [8] appears, read: dose: 100.0 mg/kg/injection, schedule: Q04DX003 (ip), vehicle: saline with Tween-80.
[9] abbreviates: dose: 200.0 mg/kg/injection, schedule: Q04DX003 (ip), vehicle: saline with Tween-80.
Setting [10] is: dose: 400.0 mg/kg/injection, schedule: Q04DX003 (ip), vehicle: saline with Tween-80.
[11] abbreviates: dose: 400.0 mg/kg/injection, schedule: Q01DX009 (ip), vehicle: saline with Tween-80.

Toxic doses and inconclusive results are not listed.

`NCC(=O)NO`: the T/C reads like this: (dose: 75.0 mg/kg/injection, schedule: Q01DX009 (ip), vehicle: saline) 99 % of control; (dose: 90.0 mg/kg/injection, schedule: Q01DX015 (ip), vehicle: water) 92 % of control; (dose: 100.0 mg/kg/injection, schedule: Q04DX003 (ip), vehicle: saline) 108 % of control; (dose: 133.0 mg/kg/injection, schedule: Q01DX015 (ip), vehicle: water) 94 % of control; (dose: 150.0 mg/kg/injection, schedule: Q01DX009 (ip), vehicle: saline) 99 % of control; (dose: 200.0 mg/kg/injection, schedule: Q01DX015 (ip), vehicle: water) 94 % of control. Further, the T/C by setting is: (dose: 200.0 mg/kg/injection, schedule: Q04DX003 (ip), vehicle: saline) 106 % of control; (dose: 300.0 mg/kg/injection, schedule: Q01DX009 (ip), vehicle: saline) 92 % of control; (dose: 400.0 mg/kg/injection, schedule: Q04DX003 (ip), vehicle: saline) 98 % of control.
Consider `CCC/C=C/C(O)C1CCCCC1` (stereo unspecified), for which the T/C reads like this: under setting [1], 92 % of control; under setting [2], 95 % of control; under setting [3], 95 % of control.
As for `O=c1[nH]c2ccccc2cc1Br`, the T/C reads like this: under setting [4], 96 % of control; under setting [5], 96 % of control; (dose: 400.0 mg/kg/injection, schedule: Q01DX001 (ip), vehicle: other) 105 % of control.
Turning to `Cc1ccc(S(=O)(=O)Nc2ccccc2)c(CC(O)(c2ccccc2)c2ccccc2)c1`, the T/C runs as follows: under setting [1], 93 % of control; under setting [2], 86 % of control; under setting [3], 93 % of control.
Turning to `CCN(CCNc1cc(C)nc(/N=C(\N)Nc2ccc(Cl)c(Cl)c2)n1)CC(C)(C)O`, the T/C reads like this: under setting [6], 93 % of control; under setting [7], 95 % of control; (dose: 300.0 mg/kg/injection, schedule: Q01DX001 (ip), vehicle: other) 104 % of control.
For `Oc1cc(-c2cc(O)c(O)c(O)c2)cc(O)c1O`, the T/C is, setting by setting: under setting [2], 104 % of control; under setting [3], 108 % of control.
Turning to `O=C1C(NCc2c(O)ccc3ccccc23)CON1C(c1ccccc1)(c1ccccc1)c1ccccc1` (stereo unspecified), the T/C is 89 % of control (dose: 75.0 mg/kg/injection, schedule: Q04DX003 (ip), vehicle: saline) and 91 % of control (dose: 300.0 mg/kg/injection, schedule: Q04DX003 (ip), vehicle: saline).
With `CCCCN=C1NC(N)=NC(C)(C)N1`, the T/C reads like this: (dose: 100.0 mg/kg/injection, schedule: Q01DX001 (ip), vehicle: Klucel (hydroxypropylcellulose) (HPC)) 98 % of control; (dose: 200.0 mg/kg/injection, schedule: Q01DX001 (ip), vehicle: Klucel (hydroxypropylcellulose) (HPC)) 102 % of control.
Consider `O=c1oc(-c2ccccc2)ccc1-c1ccccc1`, for which the T/C is, setting by setting: (dose: 100.0 mg/kg/injection, schedule: Q04DX003 (ip), vehicle: Klucel (hydroxypropylcellulose) (HPC)) 98 % of control; (dose: 200.0 mg/kg/injection, schedule: Q04DX003 (ip), vehicle: Klucel (hydroxypropylcellulose) (HPC)) 100 % of control; (dose: 400.0 mg/kg/injection, schedule: Q04DX003 (ip), vehicle: Klucel (hydroxypropylcellulose) (HPC)) 96 % of control.
In the case of `Cc1cc(O)c(C(C)(C)C)cc1N=O`, the T/C is, setting by setting: (dose: 50.0 mg/kg/injection, schedule: Q04DX003 (ip), vehicle: saline + alcohol) 104 % of control; (dose: 100.0 mg/kg/injection, schedule: Q04DX003 (ip), vehicle: saline + alcohol) 101 % of control; (dose: 200.0 mg/kg/injection, schedule: Q04DX003 (ip), vehicle: saline + alcohol) 95 % of control.
Take `CCCCSP(=O)(Cc1ccccc1)SCCCC`: the T/C reads like this: (dose: 12.5 mg/kg/injection, schedule: Q04DX003 (ip), vehicle: Klucel (hydroxypropylcellulose) (HPC)) 102 % of control; (dose: 25.0 mg/kg/injection, schedule: Q04DX003 (ip), vehicle: Klucel (hydroxypropylcellulose) (HPC)) 95 % of control; (dose: 50.0 mg/kg/injection, schedule: Q04DX003 (ip), vehicle: Klucel (hydroxypropylcellulose) (HPC)) 97 % of control.
Consider `O=C1C(=O)c2ccccc2C(O)=C1CCCCCCCCCC[S+](CCO)CCO`, for which the T/C reads like this: under setting [4], 104 % of control; under setting [5], 101 % of control.
As to `CC(C)c1ccc([N+](=O)[O-])cc1`, the T/C was 96 % of control under setting [2] and 106 % of control under setting [3].
For `CCCCCCCCCCCCCCCCOc1cccc(C=O)c1`, the T/C under setting [8] was 97 % of control, the T/C under setting [9] was 93 % of control and the T/C under setting [10] was 116 % of control.
Regarding `NNC(=O)CCc1ccccc1O`, the T/C by setting is: under setting [2], 93 % of control; under setting [3], 91 % of control; under setting [11], 93 % of control.
As to `CCCCCCC(C)N(CC)CCOC(=O)c1ccc(N)cc1` (stereo unspecified), the T/C reads like this: under setting [6], 94 % of control; under setting [7], 98 % of control.
For `OC1OC(CN(CCCl)c2ccccc2)C(O)C(O)C1O` (stereo unspecified), the T/C runs as follows: (dose: 18.0 mg/kg/injection, schedule: Q01DX Z (ip), vehicle: methylcellulose (MC)) 109 % of control; (dose: 27.0 mg/kg/injection, schedule: Q01DX Z (ip), vehicle: methylcellulose (MC)) 117 % of control; (dose: 60.0 mg/kg/injection, schedule: Q01DX Z (ip), vehicle: methylcellulose (MC)) 117 % of control.
Regarding `O=C1c2ccccc2C(=Cc2ccccc2)c2ccccc21`, the T/C is 107 % of control under setting [2]; 101 % of control under setting [8]; 107 % of control under setting [3]; 100 % of control under setting [9]; 104 % of control under setting [11]; 92 % of control under setting [10].
For `O=NN(CCCl)C(=O)NC1C2CC3CC(C2)CC1C3` (stereo unspecified), the T/C by setting is: (dose: 12.0 mg/kg/injection, schedule: Q01DX001 (ip), vehicle: other) 110 % of control; (dose: 18.0 mg/kg/injection, schedule: Q01DX001 (ip), vehicle: other) 114 % of control; (dose: 26.0 mg/kg/injection, schedule: Q01DX001 (ip), vehicle: other) 123 % of control; (dose: 40.0 mg/kg/injection, schedule: Q01DX001 (ip), vehicle: other) 163 % of control; (dose: 60.0 mg/kg/injection, schedule: Q01DX001 (ip), vehicle: other) 244 % of control; (dose: 93.0 mg/kg/injection, schedule: Q01DX001 (ip), vehicle: other) 323 % of control. For the setting “dose: 187.0 mg/kg/injection, schedule: Q01DX001 (ip), vehicle: other”, the T/C was 340 % of control.
As to `CNC(=N)c1ccc(NC(=N)c2ccc(NC(=O)Nc3ccc(C(=N)Nc4ccc(C(=N)NC)cc4)cc3)cc2)cc1`, the T/C runs as follows: (dose: 0.25 mg/kg/injection, schedule: Q01DX Z (ip), vehicle: water) 98 % of control; (dose: 0.5 mg/kg/injection, schedule: Q01DX Z (ip), vehicle: water) 96 % of control; (dose: 1.0 mg/kg/injection, schedule: Q01DX Z (ip), vehicle: water) 96 % of control; (dose: 1.87 mg/kg/injection, schedule: Q01DX Z (ip), vehicle: water) 92 % of control; (dose: 2.0 mg/kg/injection, schedule: Q01DX Z (ip), vehicle: water) 104 % of control; (dose: 3.75 mg/kg/injection, schedule: Q01DX Z (ip), vehicle: water) 156 % of control. For the same compound, the T/C was 165 % of control (dose: 7.0 mg/kg/injection, schedule: Q01DX Z (ip), vehicle: carboxymethylcellulose (CMC)); 246 % of control (dose: 7.5 mg/kg/injection, schedule: Q01DX Z (ip), vehicle: water); 209 % of control (dose: 10.0 mg/kg/injection, schedule: Q01DX Z (ip), vehicle: water); 160 % of control (dose: 14.0 mg/kg/injection, schedule: Q01DX Z (ip), vehicle: carboxymethylcellulose (CMC)); 100 % of control (dose: 25.0 mg/kg/injection, schedule: Q01DX Z (oral), vehicle: water); 98 % of control (dose: 50.0 mg/kg/injection, schedule: Q01DX Z (oral), vehicle: water). For the same compound, the T/C is 104 % of control (dose: 100.0 mg/kg/injection, schedule: Q01DX Z (oral), vehicle: water) and 100 % of control (dose: 200.0 mg/kg/injection, schedule: Q01DX Z (oral), vehicle: water).
As for `CCCCCCCCCN1CCCC(C)C1` (stereo unspecified), the T/C by setting is: (dose: 12.5 mg/kg/injection, schedule: Q04DX002 (ip), vehicle: Klucel (hydroxypropylcellulose) (HPC)) 93 % of control; (dose: 25.0 mg/kg/injection, schedule: Q04DX002 (ip), vehicle: Klucel (hydroxypropylcellulose) (HPC)) 97 % of control; (dose: 50.0 mg/kg/injection, schedule: Q04DX002 (ip), vehicle: Klucel (hydroxypropylcellulose) (HPC)) 101 % of control.

Values taken from PubChem BioAssay AID248 (DTP/NCI, 2004).
